Results published in patent US11771738B2 (Zoetis Services LLC, priority 2018, dated 2023).
Like-named read-outs stand apart in the source and are kept apart here.

Legend:
Format in all cases: cell-based
[1] = system: microfilariae of Dirofilaria immitis; assay: Dirofilaria immitis, Microfilaria (DiMf) In Vitro Assay; conditions: Dirofilaria immitis, 72 h, read-out: DiMf MED, Minimum Effective Dose, D. immitis microfilariae motility, in vitro
[2] = system: third stage larvae of Haemonchus contortus; assay: Haemonchus contortus, Larvae Stage 3 (HcL3) In Vitro Assay; conditions: Haemonchus contortus, 96 h
D. immitis L4 larvae = assay: Dirofilaria immitis, L4 Stage (DiL4) In Vitro Assay; conditions: for minimal effective concentration: Dirofilaria immitis, 72 h, read-out: DiL4 MED, Minimum Effective Dose, D. immitis L4 larvae motility, in vitro; for DiMf/DiL4: larval stage selectivity, ratio of DiMf MED to DiL4 MED
[3] = read-out: HcL3 MED, Minimum Effective Dose, H. contortus third stage larvae, approximately 96 hours
[4] = read-out: HcL3 MED, Haemonchus contortus third stage larvae in vitro, class mark appended to the Ex # in Table 3
[5] = read-out: HcL3 MED, approximately 96 hours incubation, multiple-resistant field isolate

SMILES	minimal effective concentration [1]	minimal effective concentration [2, 3]	minimal effective concentration (D. immitis L4 larvae)	DiMf/DiL4 (D. immitis L4 larvae)	minimal effective concentration [2, 4]	minimal effective concentration [2, 5]
CC(C)C[C@H]1C(=O)O[C@H](Cc2ccc(Cc3cnsc3)cc2)C(=O)N(C)[C@@H](CC(C)C)C(=O)O[C@H](C)C(=O)N(C)[C@@H](CC(C)C)C(=O)O[C@H](Cc2ccc(Cc3cnsc3)cc2)C(=O)N(C)[C@@H](CC(C)C)C(=O)O[C@H](C)C(=O)N1C [Example 3-254, (3S,6R,9S,12R,15S,18R,21S,24R)-3,9,15,21-tetraisobutyl-6,18-bis(4-(isothiazol-4-ylmethyl)benzyl)-4,10,12,16,22,24-hexamethyl-1,7,13,19-tetraoxa-4,10,16,22-tetraazacyclotetracosan-2,5,8,11,14,17,20,23-octaone]	0.003 µM	10 µM	0.001 µM	3		
COC(c1ccc(C[C@H]2OC(=O)[C@H](CC(C)C)N(C)C(=O)[C@@H](C)OC(=O)[C@H](CC(C)C)N(C)C(=O)[C@@H](Cc3ccc(C(OC)c4ccc(O)nc4)cc3)OC(=O)[C@H](CC(C)C)N(C)C(=O)[C@@H](C)OC(=O)[C@H](CC(C)C)N(C)C2=O)cc1)c1ccc(O)nc1 (stereo partly drawn) [Example 3-259, (3S,6R,9S,12R,15S,18R,21S,24R)-6,18-bis(4-((6-hydroxypyridin-3-yl)(methoxy)methyl)benzyl)-3,9,15,21-tetraisobutyl-4,10,12,16,22,24-hexamethyl-1,7,13,19-tetraoxa-4,10,16,22-tetraazacyclotetracosan-2,5,8,11,14,17,20,23-octaone]	0.01 µM	3.3 µM	0.0005 µM	20	1 to 3.3 µM	
COc1ncccc1C(C)c1ccc(C[C@H]2OC(=O)[C@H](CC(C)C)N(C)C(=O)[C@@H](C)OC(=O)[C@H](CC(C)C)N(C)C(=O)[C@@H](Cc3ccc(C(C)c4cccnc4OC)cc3)OC(=O)[C@H](CC(C)C)N(C)C(=O)[C@@H](C)OC(=O)[C@H](CC(C)C)N(C)C2=O)cc1 (stereo partly drawn) [Example 3-261, (3S,6R,9S,12R,15S,18R,21S,24R)-3,9,15,21-tetraisobutyl-6,18-bis(4-(1-(2-methoxypyridin-3-yl)ethyl)benzyl)-4,10,12,16,22,24-hexamethyl-1,7,13,19-tetraoxa-4,10,16,22-tetraazacyclotetracosan-2,5,8,11,14,17,20,23-octaone]	0.03 µM	> 100 µM	< 0.0001 µM	>300		
CC(C)C[C@H]1C(=O)O[C@H](Cc2ccc(Cc3ccnn3C3CC3)cc2)C(=O)N(C)[C@@H](CC(C)C)C(=O)O[C@H](C)C(=O)N(C)[C@@H](CC(C)C)C(=O)O[C@H](Cc2ccc(Cc3ccnn3C3CC3)cc2)C(=O)N(C)[C@@H](CC(C)C)C(=O)O[C@H](C)C(=O)N1C [Example 3-268, (3S,6R,9S,12R,15S,18R,21S,24R)-6,18-bis(4-((1-cyclopropyl-1H-pyrazol-5-yl)methyl)benzyl)-3,9,15,21-tetraisobutyl-4,10,12,16,22,24-hexamethyl-1,7,13,19-tetraoxa-4,10,16,22-tetraazacyclotetracosan-2,5,8,11,14,17,20,23-octaone]	0.002 µM	1 µM	0.0005 µM	4	< 1 µM	≤ 1 µM
Cc1ncccc1Cc1ccc(C[C@@H]2OC(=O)[C@H](CC(C)C)N(C)C(=O)[C@@H](C)OC(=O)[C@@H](CC(C)C)N(C)C(=O)[C@@H](Cc3ccc(Cc4cccnc4C)cc3)OC(=O)[C@@H](CC(C)C)N(C)C(=O)[C@@H](C)OC(=O)[C@H](CC(C)C)N(C)C2=O)cc1 [Example 3-273, (3S,6R,9R,12R,15R,18R,21S,24S)-3,9,15,21-tetraisobutyl-4,6,10,16,18,22-hexamethyl-12,24-bis[[4-[(2-methyl-3-pyridyl)methyl]phenyl]methyl]-1,7,13,19-tetraoxa-4,10,16,22-tetrazacyclotetracosane-2,5,8,11,14,17,20,23-octaone]	0.002 µM	1 µM	0.0003 µM	6.7	< 1 µM	≤ 1 µM
CC(C)C[C@H]1C(=O)O[C@H](Cc2ccc(Cc3ccnn3CC3CC3)cc2)C(=O)N(C)[C@@H](CC(C)C)C(=O)O[C@H](C)C(=O)N(C)[C@@H](CC(C)C)C(=O)O[C@H](Cc2ccc(Cc3ccnn3CC3CC3)cc2)C(=O)N(C)[C@@H](CC(C)C)C(=O)O[C@H](C)C(=O)N1C [Example 3-275, (3S,6R,9S,12R,15S,18R,21S,24R)-6,18-bis(4-((1-(cyclopropylmethyl)-1H-pyrazol-5-yl)methyl)benzyl)-3,9,15,21-tetraisobutyl-4,10,12,16,22,24-hexamethyl-1,7,13,19-tetraoxa-4,10,16,22-tetraazacyclotetracosan-2,5,8,11,14,17,20,23-octaone]	0.01 µM	1.8 µM	0.001 µM	10	1 to 3.3 µM	
COc1ccncc1Cc1ccc(C[C@H]2OC(=O)[C@H](CC(C)C)N(C)C(=O)[C@@H](C)OC(=O)[C@H](CC(C)C)N(C)C(=O)[C@@H](Cc3ccc(Cc4cnccc4OC)cc3)OC(=O)[C@H](CC(C)C)N(C)C(=O)[C@@H](C)OC(=O)[C@H](CC(C)C)N(C)C2=O)cc1 [Example 3-282, (3S,6R,9S,12R,15S,18R,21S,24R)-3,9,15,21-tetraisobutyl-6,18-bis(4-((4-methoxypyridin-3-yl)methyl)benzyl)-4,10,12,16,22,24-hexamethyl-1,7,13,19-tetraoxa-4,10,16,22-tetraazacyclotetracosan-2,5,8,11,14,17,20,23-octaone]	0.005 µM	30 µM	0.001 µM	5		
CC(C)C[C@H]1C(=O)O[C@H](Cc2ccc(Cc3cncnc3C(C)C)cc2)C(=O)N(C)[C@@H](CC(C)C)C(=O)O[C@H](C)C(=O)N(C)[C@@H](CC(C)C)C(=O)O[C@H](Cc2ccc(Cc3cncnc3C(C)C)cc2)C(=O)N(C)[C@@H](CC(C)C)C(=O)O[C@H](C)C(=O)N1C [Example 3-283, (3S,6R,9S,12R,15S,18R,21S,24R)-3,9,15,21-tetraisobutyl-6,18-bis(4-((4-isopropylpyrimidin-5-yl)methyl)benzyl)-4,10,12,16,22,24-hexamethyl-1,7,13,19-tetraoxa-4,10,16,22-tetraazacyclotetracosan-2,5,8,11,14,17,20,23-octaone]	0.003 µM	1 µM	0.0005 µM	6	< 1 µM	≤ 1 µM
CC(C)C[C@H]1C(=O)O[C@H](Cc2ccc(Cc3cc(C4CC4)no3)cc2)C(=O)N(C)[C@@H](CC(C)C)C(=O)O[C@H](C)C(=O)N(C)[C@@H](CC(C)C)C(=O)O[C@H](Cc2ccc(Cc3cc(C4CC4)no3)cc2)C(=O)N(C)[C@@H](CC(C)C)C(=O)O[C@H](C)C(=O)N1C [Example 3-284, (3S,6R,9S,12R,15S,18R,21S,24R)-6,18-bis(4-((3-cyclopropylisoxazol-5-yl)methyl)benzyl)-3,9,15,21-tetraisobutyl-4,10,12,16,22,24-hexamethyl-1,7,13,19-tetraoxa-4,10,16,22-tetraazacyclotetracosan-2,5,8,11,14,17,20,23-octaone]	0.1 µM	> 10 µM	0.0005 µM	200		
CC(C)C[C@H]1C(=O)O[C@H](Cc2ccc([C@H](F)c3nccs3)cc2)C(=O)N(C)[C@@H](CC(C)C)C(=O)O[C@H](C)C(=O)N(C)[C@@H](CC(C)C)C(=O)O[C@H](Cc2ccc([C@@H](F)c3nccs3)cc2)C(=O)N(C)[C@@H](CC(C)C)C(=O)O[C@H](C)C(=O)N1C [Example 3-285, (3S,6R,9S,12R,15S,18R,21S,24R)-6-(4-((R)-fluoro(thiazol-2-yl)methyl)benzyl)-18-(4-((S)-fluoro(thiazol-2-yl)methyl)benzyl)-3,9,15,21-tetraisobutyl-4,10,12,16,22,24-hexamethyl-1,7,13,19-tetraoxa-4,10,16,22-tetraazacyclotetracosan-2,5,8,11,14,17,20,23-octaone]	0.003 µM	5.7 µM	0.0005 µM	6		
CC(C)C[C@H]1C(=O)O[C@H](Cc2ccc(Cc3cnn(CCF)c3)cc2)C(=O)N(C)[C@@H](CC(C)C)C(=O)O[C@H](C)C(=O)N(C)[C@@H](CC(C)C)C(=O)O[C@H](Cc2ccc(Cc3cnn(CCF)c3)cc2)C(=O)N(C)[C@@H](CC(C)C)C(=O)O[C@H](C)C(=O)N1C [Example 3-286, (3S,6R,9S,12R,15S,18R,21S,24R)-6,18-bis(4-((1-(2-fluoroethyl)-1H-pyrazol-4-yl)methyl)benzyl)-3,9,15,21-tetraisobutyl-4,10,12,16,22,24-hexamethyl-1,7,13,19-tetraoxa-4,10,16,22-tetraazacyclotetracosan-2,5,8,11,14,17,20,23-octaone]	0.03 µM	> 10 µM	0.0005 µM	60		
CC(C)C[C@H]1C(=O)O[C@H](Cc2ccc(Cc3ccc(C(F)F)nc3)cc2)C(=O)N(C)[C@@H](CC(C)C)C(=O)O[C@H](C)C(=O)N(C)[C@@H](CC(C)C)C(=O)O[C@H](Cc2ccc(Cc3ccc(C(F)F)nc3)cc2)C(=O)N(C)[C@@H](CC(C)C)C(=O)O[C@H](C)C(=O)N1C [Example 3-287, (3S,6R,9S,12R,15S,18R,21S,24R)-6,18-bis(4-((6-(difluoromethyl)pyridin-3-yl)methyl)benzyl)-3,9,15,21-tetraisobutyl-4,10,12,16,22,24-hexamethyl-1,7,13,19-tetraoxa-4,10,16,22-tetraazacyclotetracosan-2,5,8,11,14,17,20,23-octaone]	0.05 µM	> 10 µM	0.0005 µM	100		
